In brackets after ≈: the same amount, converted by molar mass.
System: Mycobacterium tuberculosis
Assay: Antimycobacterial activity against human resistant Mycobacterium tuberculosis measured after six weeks
Assay type: functional

SMILES	MIC
C=CCN1C(=O)/C(=N\NC(=O)c2ccncc2)c2ccccc21	2.7 to 3.5 µg/mL (≈ 8.81 to 11.4 µM)
O=C(N/N=C1\C(=O)N(Cc2ccccc2)c2ccccc21)c1ccncc1	2.7 to 3.5 µg/mL (≈ 7.58 to 9.82 µM)

Source: ChEMBL document CHEMBL4052616, “Isoniazid derivatives and their anti-tubercular activity” (Eur J Med Chem, 2017)
